From patent publication US20110077702A1, “Means and Methods for Influencing Electrical Activity of Cells” (Academisch Medisch Centrum Bij de Universiteit van Amsterdam, priority 2008, published 2011)
Read-outs that look alike come from different tables or passages of the source.

Experiments:
LBB preparations = test: Tissue bath studies of LBB preparations of injected animals; design: species or system dog
[1] = test system: neonatal rat cardiac myocytes; test: Spontaneous activity of single control NRCMs with PDE4 inhibition; format: cell-based; conditions: 100 nM rolipram
Method: (§1) Neonatal rat cardiac myocytes and CMPCs were transduced with LV-HCN4-GFP, TBX3-GFP and LV-GFP at a MOI of 0.1, HEK 293 cells were transfected with both HCN4 and GFP or EVY deleted HCN4 and GFP. Single electrophysiological cell experiments were performed 7-10 days and 2 months after transducing NRCMs and CMPCs, respectively, or after the HEK 293 transfection. Myocytes were trypsinized during 30 seconds to prepare them for patch-clamping. By this procedure, cardiac myocytes lost their cell-to-cell connections, became less flattened (which facilitated the use of glass micropipettes), but remained attached to the coverslip.
Action potentials, If and membrane currents were recorded at 36±0.2° using the perforated patch-clamp technique (Axopatch 200B Clamp amplifier, Axon Instruments Inc.). Signals were low-pass filtered (cut-off frequency: 5-kHz) and digitized at 5-kHz. Series resistance was compensated by ≧80%, and potentials were corrected for the estimated 15-mV change in liquid-junction potential. For voltage control, data acquisition, and analysis, custom-made software was used. Superfusion solution contained (mM): 140 NaCl, 5.4 KCl, 1.8 CaCl2, 1.0 MgCl2, 5.5 glucose, 5 HEPES; pH 7.4 (NaOH). Pipettes (2-3 MΩ, borosilicate glass) were filled with solution containing (mM): 125 K-gluc, 20 KCl, 5 NaCl, 0.22 amphotericin-B, 10 HEPES; pH 7.2 (KOH).

[2] = test system: neonatal rat cardiac myocytes overexpressing HCN4; test: If activation curve, perforated patch-clamp, in HCN4 overexpressing NRCMs with PDE4 inhibition; format: cell-based; conditions: 100 nM rolipram
Method: as §1
Action potentials, If and membrane currents were recorded at 36±0.2° using the perforated patch-clamp technique (Axopatch 200B Clamp amplifier, Axon Instruments Inc.). Signals were low-pass filtered (cut-off frequency: 5-kHz) and digitized at 5-kHz. Series resistance was compensated by ≧80%, and potentials were corrected for the estimated 15-mV change in liquid-junction potential. […]
If was characterized using custom voltage-clamp protocols modified from those published previously.^14,27 For current-voltage (I-V) relationships and activation properties, If was measured as Cs^+ sensitive (5 mM) current during 6-s hyperpolarizing steps (range −30 to −110 mV) from a holding potential of −30 mV. […]

`COc1cc2c(cc1OC)CC(=O)N(CCCN(C)C[C@H]1Cc3cc(OC)c(OC)cc31)CC2` [Ivabradine] was tested, and the “spontaneous rate of HCN2/SkM1 preparation” value (LBB preparations; isoproterenol enhanced rhythm, HCN2/SkM1 injected animals) was “reductions in rate”.

`CC(C)NCC(O)c1ccc(O)c(O)c1` (stereo not shown) [isoproterenol, Isoproterenol] was tested, and the “spontaneous rate of HCN2/SkM1 preparation” value (LBB preparations) was “robust spontaneous activity sensitive to isoproterenol”.

With `COc1ccc(C2CNC(=O)C2)cc1OC1CCCC1` (stereo not shown) [rolipram] the spontaneous activity [1] was “remarkable increase in spontaneous activity” and the “shift in the If activation curve” value [2] was “rightward shift in the If activation curve”.
